The supplement of paper PMC10307832

Assays:
Assay in all cases: relative viability (nuclei count vs DMSO), 5 days (fraction); higher = more cells survive
EKVX = system: EKVX
Summary of the method: (§1)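 After 5 days of treatment, lung cancer cells in 1536-well plates were fixed and stained in a single step (final 0.05% Triton X-100, 1% formaldehyde, 1 ug/ml Hoechst) and their nuclei counted on 4× images. Treatment had been applied by pin tool the day after seeding as one drug alone or as a fixed anchor-drug dose with five library-drug doses (not always all listed) in √10 steps. Relative viability is the nuclei count of treated wells divided by that of vehicle wells, and values are medians of duplicate plates.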

SK-MES-1 = system: SK-MES-1
Summary of the method: as §1

NCI-H2087 = system: NCI-H2087
Summary of the method: as §1

A-427 = system: A-427
Summary of the method: as §1

NCI-H1915 = system: NCI-H1915
Summary of the method: as §1

NCI-H596 = system: NCI-H596
Summary of the method: as §1

NCI-H661 = system: NCI-H661
Summary of the method: as §1

NCI-H1734 = system: NCI-H1734
Summary of the method: as §1

HCC-78 = system: HCC-78
Summary of the method: as §1

HCC-366 = system: HCC-366
Summary of the method: as §1

NCI-H650 = system: NCI-H650
Summary of the method: as §1

EPLC-272H = system: EPLC-272H
Summary of the method: as §1

HOP-62 = system: HOP-62
Summary of the method: as §1

HCC-44 = system: HCC-44
Summary of the method: as §1

NCI-H358 = system: NCI-H358
Summary of the method: as §1

NCI-H1395 = system: NCI-H1395
Summary of the method: as §1

LOU-NH91 = system: LOU-NH91
Summary of the method: as §1

NCI-H838 = system: NCI-H838
Summary of the method: as §1

NCI-H3122 = system: NCI-H3122
Summary of the method: as §1

NCI-H2023 = system: NCI-H2023
Summary of the method: as §1

COR-L23 = system: COR-L23
Summary of the method: as §1

For `O=C(O)CCCCC(CCSCc1ccccc1)SCc1ccccc1` (centres undefined) [CPI-613] + C[C@]1(O)C[C@@H](c2nc(-c3ccc4ccc(-c5ccccc5)nc4c3)c3c(N)nccn32)C1 [Linsitinib] (partner 1 µM), the relative viability (EKVX; first compound 5 µM) was 0.993, the relative viability (EKVX; first compound 15.81 µM) was 0.988 and the relative viability (EKVX; first compound 50 µM) was 0.955. It also gave a relative viability (EKVX; first compound 158.11 µM) of 1.04, a relative viability (EKVX; first compound 500 µM) of 1.05 and a relative viability (SK-MES-1; first compound 5 µM) of 1.08. It also gave a relative viability (SK-MES-1; first compound 15.81 µM) of 1.04, a relative viability (SK-MES-1; first compound 50 µM) of 1.03 and a relative viability (SK-MES-1; first compound 158.11 µM) of 0.863. For the same compound, the relative viability (SK-MES-1; first compound 500 µM) was 0.988, the relative viability (NCI-H2087; first compound 5 µM) was 1.01 and the relative viability (NCI-H2087; first compound 15.81 µM) was 0.758. For the same compound, the relative viability (NCI-H2087; first compound 50 µM) was 0.868, the relative viability (NCI-H2087; first compound 158.11 µM) was 0.178 and the relative viability (NCI-H2087; first compound 500 µM) was 0.0125. For the same compound, the relative viability (A-427; first compound 5 µM) was 1.1, the relative viability (A-427; first compound 15.81 µM) was 1.12 and the relative viability (A-427; first compound 50 µM) was 1.02. For the same compound, the relative viability (A-427; first compound 158.11 µM) was 0.847, the relative viability (A-427; first compound 500 µM) was 0.618 and the relative viability (NCI-H1915; first compound 5 µM) was 1.11. It also gave a relative viability (NCI-H1915; first compound 15.81 µM) of 1.07, a relative viability (NCI-H1915; first compound 50 µM) of 1.04 and a relative viability (NCI-H1915; first compound 158.11 µM) of 0.964. For the same compound, the relative viability (NCI-H1915; first compound 500 µM) was 0.626, the relative viability (NCI-H596; first compound 5 µM) was 1.02 and the relative viability (NCI-H596; first compound 15.81 µM) was 1.04. For the same compound, the relative viability (NCI-H596; first compound 50 µM) was 1.14, the relative viability (NCI-H596; first compound 158.11 µM) was 0.519 and the relative viability (NCI-H596; first compound 500 µM) was 0.0361. The relative viability (NCI-H661; first compound 5 µM) was 0.49, the relative viability (NCI-H661; first compound 15.81 µM) was 0.458 and the relative viability (NCI-H661; first compound 50 µM) was 0.668. It also gave a relative viability (NCI-H661; first compound 158.11 µM) of 0.503, a relative viability (NCI-H661; first compound 500 µM) of 0.511 and a relative viability (NCI-H1734; first compound 5 µM) of 0.93. For the same compound, the relative viability (NCI-H1734; first compound 15.81 µM) was 0.821, the relative viability (NCI-H1734; first compound 50 µM) was 0.83 and the relative viability (NCI-H1734; first compound 158.11 µM) was 0.69. The relative viability (NCI-H1734; first compound 500 µM) was 0.117, the relative viability (HCC-78; first compound 5 µM) was 0.48 and the relative viability (HCC-78; first compound 15.81 µM) was 0.538. For the same compound, the relative viability (HCC-78; first compound 158.11 µM) was 0.573, the relative viability (HCC-78; first compound 500 µM) was 0.487 and the relative viability (HCC-366; first compound 5 µM) was 0.601. It also gave a relative viability (HCC-366; first compound 15.81 µM) of 0.637, a relative viability (HCC-366; first compound 50 µM) of 0.597 and a relative viability (HCC-366; first compound 158.11 µM) of 0.587. The relative viability (HCC-366; first compound 500 µM) was 0.0054, the relative viability (NCI-H650; first compound 5 µM) was 0.905 and the relative viability (NCI-H650; first compound 15.81 µM) was 0.807. The relative viability (NCI-H650; first compound 50 µM) was 0.975, the relative viability (NCI-H650; first compound 158.11 µM) was 0.746 and the relative viability (NCI-H650; first compound 500 µM) was 0.747. It also gave a relative viability (EPLC-272H; first compound 5 µM) of 1.21, a relative viability (EPLC-272H; first compound 15.81 µM) of 1.15 and a relative viability (EPLC-272H; first compound 50 µM) of 1.05. The relative viability (EPLC-272H; first compound 158.11 µM) was 0.759, the relative viability (EPLC-272H; first compound 500 µM) was 0.698 and the relative viability (HOP-62; first compound 5 µM) was 1.05. The relative viability (HOP-62; first compound 15.81 µM) was 1.05, the relative viability (HOP-62; first compound 50 µM) was 0.863 and the relative viability (HOP-62; first compound 158.11 µM) was 0.611. It also gave a relative viability (HOP-62; first compound 500 µM) of 0.0257, a relative viability (HCC-44; first compound 5 µM) of 0.625 and a relative viability (HCC-44; first compound 15.81 µM) of 0.666. It also gave a relative viability (HCC-44; first compound 50 µM) of 0.717, a relative viability (HCC-44; first compound 158.11 µM) of 0.393 and a relative viability (HCC-44; first compound 500 µM) of 0.0377. For the same compound, the relative viability (NCI-H358; first compound 5 µM) was 0.684, the relative viability (NCI-H358; first compound 15.81 µM) was 0.769 and the relative viability (NCI-H358; first compound 50 µM) was 0.743. The relative viability (NCI-H358; first compound 158.11 µM) was 0.347, the relative viability (NCI-H358; first compound 500 µM) was 0.0758 and the relative viability (NCI-H1395; first compound 5 µM) was 1.09. For the same compound, the relative viability (NCI-H1395; first compound 15.81 µM) was 0.961, the relative viability (NCI-H1395; first compound 50 µM) was 1.08 and the relative viability (NCI-H1395; first compound 158.11 µM) was 1.1. The relative viability (NCI-H1395; first compound 500 µM) was 1.04, the relative viability (LOU-NH91; first compound 5 µM) was 0.918 and the relative viability (LOU-NH91; first compound 15.81 µM) was 0.907. It also gave a relative viability (LOU-NH91; first compound 50 µM) of 1.06, a relative viability (LOU-NH91; first compound 158.11 µM) of 0.971 and a relative viability (LOU-NH91; first compound 500 µM) of 0.959. The relative viability (NCI-H838; first compound 5 µM) was 1.04, the relative viability (NCI-H838; first compound 15.81 µM) was 0.956 and the relative viability (NCI-H838; first compound 50 µM) was 0.905. It also gave a relative viability (NCI-H838; first compound 158.11 µM) of 0.544, a relative viability (NCI-H838; first compound 500 µM) of 0.0935 and a relative viability (NCI-H3122; first compound 5 µM) of 0.985. The relative viability (NCI-H3122; first compound 15.81 µM) was 1.02, the relative viability (NCI-H3122; first compound 50 µM) was 0.988 and the relative viability (NCI-H3122; first compound 158.11 µM) was 0.644. For the same compound, the relative viability (NCI-H3122; first compound 500 µM) was 0.0543, the relative viability (NCI-H2023; first compound 5 µM) was 0.614 and the relative viability (NCI-H2023; first compound 15.81 µM) was 0.698. For the same compound, the relative viability (NCI-H2023; first compound 50 µM) was 0.668, the relative viability (NCI-H2023; first compound 158.11 µM) was 0.243 and the relative viability (NCI-H2023; first compound 500 µM) was 0.0069. It also gave a relative viability (COR-L23; first compound 5 µM) of 0.851, a relative viability (COR-L23; first compound 15.81 µM) of 0.918 and a relative viability (COR-L23; first compound 50 µM) of 0.779. The relative viability (COR-L23; first compound 158.11 µM) was 0.334 and the relative viability (COR-L23; first compound 500 µM) was 0.0236.
